Test results published in US20240189297A1 (priority 2021, published 2024).
Read-outs that look alike come from different tables or passages of the source.

Experiments:
[1] = free base (non-protonated) nicotine; cited from earlier work

For `CN1CCCC1c1cccnc1` (stereo not drawn) [nicotine, 3-(1-methyl-2-pyrrolidinyl) pyridine], the pKa value [1] is given as “about 8”, the “partition coefficient (oil phase : aqueous phase)” value (Samples 1-4: MCT oil vs DI water, basified DI water pH 7.4, artificial saliva pH 6.8, acidified DI water pH 2) is given as “greater than 1” and the “partition coefficient (oil phase : aqueous phase)” value (Samples 5-8: MCT, triacetin or triolein oil vs 1M acetic acid pH adjuster, pH 2) is given as “less than 1”.
